Results: patent US8367720B2 (Panorama Research Inc., priority 2007, dated 2013)
Like-named read-outs stand apart in the source and are kept apart here.

Assays:
Candida albicans = experiment: Inhibition zone test (holing method); assay type: cell-based; settings: 37° C., 24 h; compounds 0.05 mg/well, nysfungin 0.10 mg/well
Procedure: (§1) After being cultured at 37° C. for 24 h, the sizes of inhibition zones were measured.

[1] = test system: Staphylococcus aureus MRSA 5676; experiment: Inhibition zone test (holing method); assay type: cell-based; settings: 37° C., 24 h; compounds 0.05 mg/well, vancomycin 0.15 mg/well
Procedure: as §1

E. coli = experiment: Inhibition zone test (holing method); assay type: cell-based; settings: 37° C., 24 h; compounds 0.05 mg/well, gentamicin 0.10 mg/well
Procedure: as §1

[2] = test system: Staphylococcus aureus wild type; experiment: Inhibition zone test (holing method); assay type: cell-based; settings: 37° C., 24 h; compounds 0.05 mg/well, streptomycin 0.15 mg/well
Procedure: as §1

Pseudomonas aeruginosa [3] = experiment: Inhibition zone test (holing method); assay type: cell-based; settings: 37° C., 24 h; compounds 0.05 mg/well, gentamicin 0.10 mg/well
Procedure: as §1

[4] = test system: Staphylococcus aureus MRSA 5677; experiment: Inhibition zone test (holing method); assay type: cell-based; settings: 37° C., 24 h; compounds 0.05 mg/well, vancomycin 0.15 mg/well
Procedure: as §1

Bacillus subtilis = experiment: Inhibition zone test (holing method); assay type: cell-based; settings: 37° C., 24 h; compounds 0.05 mg/well, streptomycin 0.15 mg/well
Procedure: as §1

L1210 cells = assay type: cell-based; settings: 10 μM, after 12 h
Procedure: The cells were cultured in an incubator at 37° C., 5% CO2 and saturated humidity. The culture medium was removed, the cells were washed with PBS twice, fixed at −20° C. overnight. Then the cells were centrifuged again, washed with PBS to remove ethanol, cultured with RNase A (200 μg/mL, Sigma) at 37° C. for 1 h, stained with PI (50 μg/mL, Sigma) in dark for 30 min, and detected by using a flow cytometer.

[5] = test system: secretion of pyocyanin by Pseudomonas aeruginosa; experiment: Measurement of pyocyanin; assay type: cell-based; settings: 18 h culture, A520; Andro, AL-1 1 mM; Chuanhuning, Yanhuning, Lianbizhi 10 mM (FIG. 3)
Procedure: Pseudomonas aeruginosa was inoculated in LB medium, then cultured at a constant temperature of 37° C. in a shaker overnight. […] The supernatant was taken and extracted in turn with chloroform and 0.2 N HCl, and A520 values were measured (Zielinshi et al., Biol. Chem. 1991, 266, 9754-9763; May et al., Clin. Microbiology Rev. 1991, 4, 191-206).

[6] = test system: BF of Pseudomonas aeruginosa; experiment: Scanning electron microscopy (SEM) experiment, biofilm (BF) formation; assay type: cell-based; settings: 1 mM; early BF 3rd day, mature BF 7th day (FIG. 6, 7)
Procedure: Pseudomonas aeruginosa was inoculated in LB liquid, and cultured at a constant temperature of 37° C. in a shaker overnight, and the bacterial liquid was centrifuged, washed with sterile physiological saline twice, and mixed with physiological saline to form a bacterial suspension having a turbidity of 0.5 McFarland Standard (bacterial number was about 5×10^8-9 CFU/mL). The bacterial suspension was diluted with physiological saline 50-times. A biofilm (BF) carrier was placed in a tube containing 2 mL of the bacterial liquid, and the culturing was conducted at 37° C. […] Medium was replaced every other two days. The formation of BF was observed by using Quanta 400 thermal field emission scanning electron microscope (FEI Company). The carrier adhered with BF was washed with sterile physiological saline to remove floating bacteria, fixed with 2.5% glutaral, immersed in pH 7.4 PBS for three times, dewatered in turn with 50%, 70%, 80% and 90% ethanol once, then dewatered with 100% ethanol twice and with tert-butanol twice, 5 min for each time, and lyophilized for 5 h. The surface of carrier was plated with gold under vacuum.

MRSA5677 = experiment: Test of minimal inhibitory concentration (MIC); assay type: cell-based, Staphylococcus aureus; settings: two-fold dilution, 37° C., 24 h, absorbance 595 nm
[7] = test system: suspended Pseudomonas aeruginosa; experiment: Experiment of combination with antibiotics; assay type: cell-based; settings: Pseudomonas aeruginosa cultured 15 h, OD600; ciprofloxacin 0.017 μg/mL, erythromycin 3.75 μg/mL, Andro 350 μg/mL, AL-1 538 μg/mL (1 μmol/mL)
L1210 leukemia cells = experiment: In vitro antitumor activity to L1210 leukemia cells (MTT); assay type: cell-based; settings: for IC50: Mus musculus
Procedure: The cells were cultured in an incubator at 37° C., 5% CO2 and saturated humidity for 48 h. Then 5 mg/mL MTT (20 μL/well) was added and cultured at the same conditions for 4 h, DMSO (150 μL/well) was added, and the (570/630 nm) absorbance (A values) was measured by using micro-plate reader.

Pseudomonas aeruginosa [8] = experiment: Measurement of growth curve of Pseudomonas aeruginosa; assay type: cell-based; settings: 1 mM (FIG. 2)
Procedure: Pseudomonas aeruginosa was inoculated in LB medium, and cultured at a constant temperature of 37° C. in a shaker overnight.

[9] = test system: extracellular protease of Pseudomonas aeruginosa; experiment: Measurement of extracellular protease; assay type: cell-based; settings: azo-casein, A440; Andro, AL-1 1 mM; Chuanhuning, Yanhuning, Lianbizhi 10 mM (FIG. 4)
Procedure: Pseudomonas aeruginosa was inoculated in LB liquid, and cultured at a constant temperature of 37° C. in a shaker overnight. […] After the bacterial liquids were cultured simultaneously at 37° C. for 6 h and centrifuged, supernatant 100 μL was taken, azo-casein 5 mg was added, […] and CaCl2 10 mM were added, and then they were shaken for reaction at 37° C. for 6 h, and the reaction was terminated by adding EDTA-Na. The A440 values of the supernatants were measured (Zielinshi et al., Biol. Chem. 1991, 266, 9754-9763; May et al., Clin. Microbiology Rev. 1991, 4, 191-206).

MRSA5676 = experiment: Test of minimal inhibitory concentration (MIC); assay type: cell-based, Staphylococcus aureus; settings: two-fold dilution, 37° C., 24 h, absorbance 595 nm
[10] = test system: Staphylococcus aureus wild type; experiment: Test of minimal inhibitory concentration (MIC); assay type: cell-based; settings: two-fold dilution, 37° C., 24 h, absorbance 595 nm
[11] = test system: rats with STZ-induced diabetes mellitus; experiment: Therapeutical effects on STZ-induced diabetes mellitus in rats
Procedure: 30 Female SD rats, 180-220 g, fasted for 16 h, were subjected to intraperitoneal injection of 60 mg/kg of STZ (purchased from Sigma Company). After 72 h, blood samples were collected from the rats by cutting their tails after fasting 16 h, and blood glucose values were measured by using a blood glucose analyzer (Johnson & Johnson Company). […] Animals were weighed, orbital bleeded, and the sera were separated. According to the instructions of kit (Zhejiang Dongou Biotechnology Co., Ltd.), the contents of triglyceride and total cholesterol were measured. […] The rats of vehicle group were treated with an equivalent volume of solvent (20% DMSO in H2O). After being fasted for 16 h, the rats were weighed, and bleeded for the measurement of blood glucose, triglyceride and total cholesterol. The obtained data were processed by using one-factor analysis of variance (One-way ANOVA) followed by Student's t-test.

Pseudomonas aeruginosa [12] = experiment: Atomic force microscope (AFM) experiment; assay type: cell-based; settings: 1 mM, 15 h contact (FIG. 5)
Procedure: Pseudomonas aeruginosa was inoculated in LB liquid, shaken and cultured at a constant temperature of 37° C. overnight, and the bacterial liquid was centrifuged, washed with sterile physiological saline twice, and mixed with physiological saline to form a bacterial suspension having a turbidity of 0.5 McFarland Standard (bacterial number was about 5×10^8-9 CFU/mL). The bacterial suspension was diluted with physiological saline 50-times. […] After contacting with medicines for 15 h, 1 mL culture solution was added in a sterile centrifuge tube and centrifuged at 10,000×g for 5 min. The supernatant liquid was discarded, and the obtained bacterial sample was washed with double distilled water twice, and suspended in double distilled water. A small volume of Pseudomonas aeruginosa suspension was taken and dropped on a cover slip carefully. After water was dried under atmospheric condition, the bacteria were observed by CP-Research type atom force microscope (U.S.A., Thermomicroscopes Co.) ([…] et al., Antimicro. Chemother. 1994, 34, 679-685; […] et al., Antimicro. Agents Chemother. 2000, 44, 682-687; Nickel et al., Urology 1986, 135, 586-588).

macrophages = settings: read-out: IC50, inhibition of cell division (C5α induced, macrophages); cited from earlier work
MCF-7 breast cancer = settings: 100 mg/kg, mice, hollow fiber system; cited from earlier work
B16F0 melanoma = settings: orally 200 mg/kg, twice per day; cited from earlier work
HT-29 human colon cancer = settings: orally 200 mg/kg, twice per day; cited from earlier work

For C=C1CCC2[C@](C)(CO)[C@H](O)CC[C@@]2(C)[C@@H]1C/C=C1/C(=O)OCC1OC(=O)CCCCC1CCSS1 (stereo partly drawn) [AL-1, 14-lipoyl-3,19-dihydroxy-andrographolide], the “Inhibition zone diameter, Candida albicans” value (Candida albicans) was “^b (incompetence (inhibition zone diameter <4 mm))”, the “Inhibition zone diameter, Staphylococcus aureus MRSA 5676” value [1] was 6.9 ± 0.80 mm and the “Inhibition zone diameter, E. coli” value (E. coli) was “^b (incompetence (inhibition zone diameter <4 mm))”. The “Inhibition zone diameter, Staphylococcus aureus Wild type” value [2] was 4.9 ± 0.81 mm, the “Inhibition zone diameter, Pseudomonas aeruginosa” value (Pseudomonas aeruginosa [3]) was “^b (incompetence (inhibition zone diameter <4 mm))” and the “Inhibition zone diameter, Staphylococcus aureus MRSA 5677” value [4] was 4.1 ± 0.77 mm. For the same molecule, the “Inhibition zone diameter, Bacillus Subtilis” value (Bacillus subtilis) was “^b (incompetence (inhibition zone diameter <4 mm))”, the “effect on cell cycle / apoptosis of L1210 cells” value (L1210 cells) was “arrest L1210 cells at G1 prophase” and the “inhibition of the secretion of pyocyanin” value [5] was “AL-1>Andro>ANO”. For the same molecule, the “formation of early and mature BF of Pseudomonas aeruginosa under SEM” value [6] was “able to destroy the BF of Pseudomonas aeruginosa”, the “MIC, MRSA5677” value (MRSA5677) was 1000 and the “Survival Rate” value [7] was 84%. The “cytotoxicity relative to andrographolide” value (L1210 leukemia cells; L1210 cells) was 3 times, the IC50 (L1210 leukemia cells; L1210 cells, 48 h, MTT, read-out: IC50) was 8.04 ± 1.92 µM and the “inhibition of the growth of Pseudomonas aeruginosa (growth curve, A600)” value (Pseudomonas aeruginosa [8]) was “significantly inhibited the growth of bacteria”. For the same molecule, the “inhibition of the production/activity of extracellular protease” value [9] was “AL-1>ANO>Andro”, the “MIC, MRSA5676” value (MRSA5676) was 1000 and the “MIC, Wild type” value [10] was 1000. The “reduction of blood glucose level” value ([11]; AL-1 160 mg/kg, 7 days) was “about 66%”, the Blood glucose ([11]; Day 0, before treatment) was 19.53 ± 1.90 mmol/L and the Body weight ([11]; Day 0, before treatment) was 214.33 ± 9.81 g. For the same molecule, the Total cholesterol ([11]; Day 0, before treatment) was 3.39 ± 0.59 mmol/L, the Total triglyceride ([11]; Day 0, before treatment) was 6.28 ± 0.78 mmol/L and the “growth morphology of Pseudomonas aeruginosa under AFM” value (Pseudomonas aeruginosa [12]) was “did not form a confertim bacterial colony”.

For C=C1CCC2[C@@](C)(CC[C@@H](O)[C@@]2(C)CO)C1C/C=C1/C(=O)OCC1O (stereo partly drawn) [Andro, Andrographolide], the “Inhibition zone diameter, Candida albicans” value (Candida albicans) was “^b (incompetence (inhibition zone diameter <4 mm))”, the “Inhibition zone diameter, Staphylococcus aureus MRSA 5676” value [1] was “^b (incompetence (inhibition zone diameter <4 mm))” and the “Inhibition zone diameter, E. coli” value (E. coli) was “^b (incompetence (inhibition zone diameter <4 mm))”. For the same molecule, the “Inhibition zone diameter, Staphylococcus aureus Wild type” value [2] was “^b (incompetence (inhibition zone diameter <4 mm))”, the “Inhibition zone diameter, Pseudomonas aeruginosa” value (Pseudomonas aeruginosa [3]) was “^b (incompetence (inhibition zone diameter <4 mm))” and the “Inhibition zone diameter, Staphylococcus aureus MRSA 5677” value [4] was “^b (incompetence (inhibition zone diameter <4 mm))”. For the same molecule, the “Inhibition zone diameter, Bacillus Subtilis” value (Bacillus subtilis) was “^b (incompetence (inhibition zone diameter <4 mm))”, the “inhibition of the secretion of pyocyanin” value [5] was “AL-1>Andro>ANO” and the IC50 (macrophages) was 5.6 ± 0.7 µM. For the same molecule, the inhibition of growth (MCF-7 breast cancer) was “about 50%”, the IC50 (L1210 leukemia cells; L1210, 48 h) was 28.7 ± 6.19 µM and the “inhibition of growth of melanoma” value (B16F0 melanoma) was 39%. For the same molecule, the “inhibition of the growth of Pseudomonas aeruginosa (growth curve, A600)” value (Pseudomonas aeruginosa [8]) was “weak antibacterial activity”, the “inhibition of the production/activity of extracellular protease” value [9] was “AL-1>ANO>Andro” and the “inhibition of growth of colon cancer” value (HT-29 human colon cancer) was 52%.
